Experimental data as given in patent publication US12473304B2, “Heterocyclic PAD4 inhibitors” (BRISTOL-MYERS SQUIBB COMPANY, priority 2020, dated 2025).

Target: human PAD4 (hPAD4) (Homo sapiens (Human), UniProt Q9UM07)
Experiment: RFMS Human PAD4 Functional Assay 1
Format: biochemical
Settings: RFMS assay 1; 5 nM hPAD4, 250 μM BAEE substrate, 50 μM calcium, 37° C.
In short: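 Citrullination product read by RapidFire triple-quad MRM against a modified-citrulline internal standard, after TCA stop and 30 min phenyl glyoxal step at 37 °C. Reaction: 250 μM BAEE, 5 nM human PAD4, 90 min at 37 °C, pH 7.5 HEPES buffer with 50 μM calcium and 5 μM TPEN, following 30 min compound–enzyme preincubation (max 50 μM).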

Sequence of human PAD4 (hPAD4) (Q9UM07 whole entry): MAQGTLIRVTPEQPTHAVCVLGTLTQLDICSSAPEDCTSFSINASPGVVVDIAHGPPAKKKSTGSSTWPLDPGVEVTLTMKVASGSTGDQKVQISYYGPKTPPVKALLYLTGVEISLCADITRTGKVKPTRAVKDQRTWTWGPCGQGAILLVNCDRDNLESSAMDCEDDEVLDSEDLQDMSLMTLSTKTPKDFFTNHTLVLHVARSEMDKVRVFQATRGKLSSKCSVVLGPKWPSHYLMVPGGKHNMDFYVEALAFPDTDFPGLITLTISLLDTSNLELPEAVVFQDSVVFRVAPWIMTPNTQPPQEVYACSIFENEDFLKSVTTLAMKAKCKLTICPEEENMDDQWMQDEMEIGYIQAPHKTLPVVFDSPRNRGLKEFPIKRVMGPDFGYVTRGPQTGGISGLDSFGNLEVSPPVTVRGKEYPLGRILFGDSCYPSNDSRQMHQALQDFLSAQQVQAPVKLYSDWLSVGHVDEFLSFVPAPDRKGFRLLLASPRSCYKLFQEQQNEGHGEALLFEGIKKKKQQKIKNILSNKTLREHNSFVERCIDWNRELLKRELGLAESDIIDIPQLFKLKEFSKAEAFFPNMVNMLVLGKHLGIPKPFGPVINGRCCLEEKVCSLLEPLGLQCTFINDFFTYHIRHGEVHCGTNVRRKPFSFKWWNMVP

Row | Compound | IC50 [nM]
1 | Cc1c(-c2cc3ccc(-c4ccc(O)c(F)c4)cc3n2CC2CC2)oc2cc(C(=O)N3CC4CCC3[C@@H]4N)ccc12 (stereo partly drawn) [Example 182, ((7R)-7-Amino-2-azabicyclo[2.2.1]heptan-2-yl)(2-(1-(cyclopropylmethyl)-6-(3-fluoro-4-hydroxyphenyl)-1H-indol-2-yl)-3-methylbenzofuran-6-yl)methanone] | 923
2 | Cc1c(-c2cc3ccc(-c4ccc(C(N)=O)c(Cl)c4)cc3n2CC2CC2)oc2cc(C(=O)N3CC4CCC3[C@@H]4N)ccc12 (stereo partly drawn) [Example 183, 4-(2-(6-((7R)-7-Amino-2-azabicyclo[2.2.1]heptane-2-carbonyl)-3-methylbenzofuran-2-yl)-1-(cyclopropylmethyl)-1H-indol-6-yl)-2-chlorobenzamide] | 88
3 | Cc1ccc2cc(-c3oc4cc(C(=O)N5CC6CCC5[C@@H]6N)ccc4c3C)n(CC3CC3)c2c1 (stereo partly drawn) [Example 184, ((7R)-7-Amino-2-azabicyclo[2.2.1]heptan-2-yl)(2-(1-(cyclopropylmethyl)-6-methyl-1H-indol-2-yl)-3-methylbenzofuran-6-yl)methanone] | 50
4 | Cc1c(-c2cc3ccc(-c4ccc(C(N)=O)c(F)c4)cc3n2CC2CC2)oc2cc(C(=O)N3CC4CCC3[C@@H]4N)ccc12 (stereo partly drawn) [Example 185, 4-(2-(6-((7R)-7-Amino-2-azabicyclo[2.2.1]heptane-2-carbonyl)-3-methylbenzofuran-2-yl)-1-(cyclopropylmethyl)-1H-indol-6-yl)-2-fluorobenzamide] | 25
5 | COc1cc(-c2ccc3cc(-c4oc5cc(C(=O)N6CC7CCC6[C@@H]7N)ccc5c4C)n(CC4CC4)c3c2)ccn1 (stereo partly drawn) [Example 186, ((7R)-7-Amino-2-azabicyclo[2.2.1]heptan-2-yl)(2-(1-(cyclopropylmethyl)-6-(2-methoxypyridin-4-yl)-1H-indol-2-yl)-3-methylbenzofuran-6-yl)methanone] | 56
6 | Cc1c(-c2cc3ccc(C4CC4)cc3n2CC2CC2)oc2cc(C(=O)N3CC4CCC3[C@@H]4N)ccc12 (stereo partly drawn) [Example 187, ((7R)-7-Amino-2-azabicyclo[2.2.1]heptan-2-yl)(2-(6-cyclopropyl-1-(cyclopropylmethyl)-1H-indol-2-yl)-3-methylbenzofuran-6-yl)methanone] | 1550
7 | Cc1cc(-c2ccc3cc(-c4oc5cc(C(=O)N6CC7CCC6[C@@H]7N)ccc5c4C)n(CC4CC4)c3c2)cnc1C(N)=O (stereo partly drawn) [Example 188, 5-(2-(6-((7R)-7-Amino-2-azabicyclo[2.2.1]heptane-2-carbonyl)-3-methylbenzofuran-2-yl)-1-(cyclopropylmethyl)-1H-indol-6-yl)-3-methylpicolinamide] | 81
8 | COC1CCN(c2ccc3cc(-c4oc5cc(C(=O)N6CC7CCC6[C@@H]7N)ccc5c4C)n(CC4CC4)c3c2)CC1 (stereo partly drawn) [Example 189, ((7R)-7-Amino-2-azabicyclo[2.2.1]heptan-2-yl)(2-(1-(cyclopropylmethyl)-6-(4-methoxypiperidin-1-yl)-1H-indol-2-yl)-3-methylbenzofuran-6-yl)methanone] | 30
9 | COC1CN(c2ccc3cc(-c4oc5cc(C(=O)N6CC7CCC6[C@@H]7N)ccc5c4C)n(CC4CC4)c3c2)C1 (stereo partly drawn) [Example 190, ((7R)-7-Amino-2-azabicyclo[2.2.1]heptan-2-yl)(2-(1-(cyclopropylmethyl)-6-(3-methoxyazetidin-1-yl)-1H-indol-2-yl)-3-methylbenzofuran-6-yl)methanone] | 58
10 | Cc1c(-c2cc3ccc(N4CCC(N)CC4)cc3n2CC2CC2)oc2cc(C(=O)N3CC4CCC3[C@@H]4N)ccc12 (stereo partly drawn) [Example 191, ((7R)-7-Amino-2-azabicyclo[2.2.1]heptan-2-yl)(2-(6-(4-aminopiperidin-1-yl)-1-(cyclopropylmethyl)-1H-indol-2-yl)-3-methylbenzofuran-6-yl)methanone] | 20
11 | Cc1c(-c2cc3ccc(N4CCNCC4)cc3n2CC2CC2)oc2cc(C(=O)N3CC4CCC3[C@@H]4N)ccc12 (stereo partly drawn) [Example 192, ((7R)-7-Amino-2-azabicyclo[2.2.1]heptan-2-yl)(2-(1-(cyclopropylmethyl)-6-(piperazin-1-yl)-1H-indol-2-yl)-3-methylbenzofuran-6-yl)methanone] | 93
12 | Cc1c(-c2cc3ccc(N4CCNCC4=O)cc3n2CC2CC2)oc2cc(C(=O)N3CC4CCC3[C@@H]4N)ccc12 (stereo partly drawn) [Example 193, 1-(2-(6-((7R)-7-Amino-2-azabicyclo[2.2.1]heptane-2-carbonyl)-3-methylbenzofuran-2-yl)-1-(cyclopropylmethyl)-1H-indol-6-yl)piperazin-2-one] | 334

More lines, now with the values ahead:

Row | IC50 [nM] | Compound
13 | 1800 | Cc1c(-c2cc3ccccc3n2CC2CC2)oc2cc(C(=O)N3C[C@H](N)C[C@@H](F)C3)ccc12 [Example 194, ((3R,5R)-3-Amino-5-fluoropiperidin-1-yl)(2-(1-(cyclopropylmethyl)-1H-indol-2-yl)-3-methylbenzofuran-6-yl)methanone]
14 | 363 | Cc1c(-c2cc3ccc(-c4ccc5c(c4)CNC5=O)cc3n2CC2CC2)oc2cc(C(=O)N3C[C@H](N)C[C@@H](F)C3)ccc12 [Example 195, 5-(2-(6-((3R,5R)-3-Amino-5-fluoropiperidine-1-carbonyl)-3-methylbenzofuran-2-yl)-1-(cyclopropylmethyl)-1H-indol-6-yl)isoindolin-1-one]
15 | 384 | Cc1c(-c2cc3ccc(-c4ccc(C(N)=O)c(F)c4)cc3n2CC2CC2)oc2cc(C(=O)N3C[C@H](N)C[C@@H](F)C3)ccc12 [Example 196, 4-(2-(6-((3R,5R)-3-Amino-5-fluoropiperidine-1-carbonyl)-3-methylbenzofuran-2-yl)-1-(cyclopropylmethyl)-1H-indol-6-yl)-2-fluorobenzamide]
16 | 317 | Cc1c(-c2cc3ccc(-c4ccn5c(C)nnc5c4)cc3n2CC2CC2)oc2cc(C(=O)N3C[C@H](N)C[C@@H](F)C3)ccc12 [Example 197, ((3R,5R)-3-Amino-5-fluoropiperidin-1-yl)(2-(1-(cyclopropylmethyl)-6-(3-methyl-[1,2,4]triazolo[4,3-a]pyridin-7-yl)-1H-indol-2-yl)-3-methylbenzofuran-6-yl)methanone]
17 | 3260 | Cc1c(-c2cc3ccc(-c4cccc(O)c4F)cc3n2CC2CC2)oc2cc(C(=O)N3C[C@H](N)C[C@@H](F)C3)ccc12 [Example 198, ((3R,5R)-3-Amino-5-fluoropiperidin-1-yl)(2-(1-(cyclopropylmethyl)-6-(2-fluoro-3-hydroxyphenyl)-1H-indol-2-yl)-3-methylbenzofuran-6-yl)methanone]
18 | 3360 | Cc1c(-c2cc3ccc(-c4ccc(C(N)=O)c(Cl)c4)cc3n2CC2CC2)oc2cc(C(=O)N3C[C@H](N)C[C@@H](F)C3)ccc12 [Example 199, 4-(2-(6-((3R,5R)-3-Amino-5-fluoropiperidine-1-carbonyl)-3-methylbenzofuran-2-yl)-1-(cyclopropylmethyl)-1H-indol-6-yl)-2-chlorobenzamide]
19 | 1970 | Cc1c(-c2cc3ccc(N4CCNCC4)cc3n2CC2CC2)oc2cc(C(=O)N3C[C@H](N)C[C@@H](F)C3)ccc12 [Example 201, ((3R,5R)-3-Amino-5-fluoropiperidin-1-yl)(2-(1-(cyclopropylmethyl)-6-(piperazin-1-yl)-1H-indol-2-yl)-3-methylbenzofuran-6-yl)methanone]
20 | 1060 | Cc1c(-c2cc3ccc(N4CCC(N)CC4)cc3n2CC2CC2)oc2cc(C(=O)N3C[C@H](N)C[C@@H](F)C3)ccc12 [Example 202, ((3R,5R)-3-Amino-5-fluoropiperidin-1-yl)(2-(6-(4-aminopiperidin-1-yl)-1-(cyclopropylmethyl)-1H-indol-2-yl)-3-methylbenzofuran-6-yl)methanone]
21 | 12 | COc1cc(C(=O)N2CC3CCC2[C@@H]3N)cc2oc(-c3cc4ccc(C(C)(C)O)nc4n3CC3CC3)c(C)c12 (stereo partly drawn) [Example 203, ((7R)-7-Amino-2-azabicyclo[2.2.1]heptan-2-yl)(2-(1-(cyclopropylmethyl)-6-(2-hydroxypropan-2-yl)-1H-pyrrolo[2,3-b]pyridin-2-yl)-4-methoxy-3-methylbenzofuran-6-yl)methanone]
22 | 39 | Cc1c(-c2cc3ccc(C(C)(C)O)cc3n2CC2CC2)oc2cc(C(=O)N3CC4CCC3[C@@H]4N)ccc12 (stereo partly drawn) [Example 204, ((7R)-7-Amino-2-azabicyclo[2.2.1]heptan-2-yl)(2-(1-(cyclopropylmethyl)-6-(2-hydroxypropan-2-yl)-1H-indol-2-yl)-3-methylbenzofuran-6-yl)methanone]
23 | 60 | COc1cc(C(=O)N2CC3CCC2[C@@H]3N)cn2nc(-c3cc4ccc(-c5ccccc5N5CCNC5=O)nc4n3CC3CC3)c(C)c12 (stereo partly drawn) [Example 205, 1-[2-(2-{6-[(7R)-7-Amino-2-azabicyclo[2.2.1]heptane-2-carbonyl]-4-methoxy-3-methylpyrazolo[1,5-a]pyridin-2-yl}-1-(cyclopropylmethyl)-1H-pyrrolo[2,3-b]pyridin-6-yl)phenyl]imidazolidin-2-one]
24 | 70 | COc1cc(C(=O)N2CC3CCC2[C@@H]3N)cn2nc(-c3cc4ccc(-c5ccc(C(N)=O)c(C)c5)nc4n3CC3CC3)c(C)c12 (stereo partly drawn) [Example 206, 4-(2-{6-[(7R)-7-Amino-2-azabicyclo[2.2.1]heptane-2-carbonyl]-4-methoxy-3-methylpyrazolo[1,5-a]pyridin-2-yl}-1-(cyclopropylmethyl)-1H-pyrrolo[2,3-b]pyridin-6-yl)-2-methylbenzamide]
25 | 1080 | COc1cc(C(=O)N2C[C@H](N)C[C@@H](F)C2)cn2nc(-c3cc4ccc(-c5ccccc5CO)cc4n3CC3CC3)c(C)c12 [Example 209, [2-(2-{6-[(3R,5R)-3-Amino-5-fluoropiperidine-1-carbonyl]-4-methoxy-3-methylpyrazolo[1,5-a]pyridin-2-yl}-1-(cyclopropylmethyl)-1H-indol-6-yl)phenyl]methanol]
